Tests used:
[1] = test system: Human immunodeficiency virus 1; assay: Antiviral activity against PBMC infected with Human immunodeficiency virus type 1 NL4-3 isolate.; assay type: functional
[2] = target: Human immunodeficiency virus type 1 protease (Human immunodeficiency virus 1, UniProt Q72874); assay: Inhibitory activity against P2 site in HIV protease.
[3] = Ratio of IC50/Ki was determined

Compound | CIC IC50 [1] | Ki [2] | Ratio [3]
CC(C)(C)NC(=O)[C@@H]1C[C@@H]2CCCC[C@@H]2CN1C[C@@H](O)[C@H](Cc1ccccc1)NC(=O)[C@H](CC(N)=O)NC(=O)c1ccc2ccccc2n1 | 23 nM | – | –
CSC(C)(C)[C@H](NC(=O)c1ccc2ccccc2n1)C(=O)N[C@@H](Cc1ccccc1)[C@H](O)CN1C[C@H]2CCCC[C@H]2C[C@H]1C(=O)NC(C)(C)C | 27 nM | 2.59 nM | 10
CC(C)(C)NC(=O)[C@@H]1C[C@@H]2CCCC[C@@H]2CN1C[C@@H](O)[C@H](Cc1ccccc1)NC(=O)[C@@H](NC(=O)c1ccc2ccccc2n1)C(C)(C)S(C)(=O)=O | 4.9 nM | 0.172 nM | 28
CC(C)[C@H](NC(=O)c1ccc2ccccc2n1)C(=O)N[C@@H](Cc1ccccc1)[C@H](O)CN1C[C@H]2CCCC[C@H]2C[C@H]1C(=O)NC(C)(C)C | 54 nM | 0.55 nM | 98
CC(C)(C)NC(=O)[C@@H]1C[C@@H]2CCCC[C@@H]2CN1C[C@@H](O)[C@H](Cc1ccccc1)NC(=O)[C@H](CS(C)(=O)=O)NC(=O)c1ccc2ccccc2n1 | 22 nM | 0.113 nM | 195
CC(C)(C)NC(=O)[C@@H]1C[C@@H]2CCCC[C@@H]2CN1C[C@@H](O)[C@H](Cc1ccccc1)NC(=O)[C@@H](NC(=O)OCc1ccccc1)C(C)(C)S(C)(=O)=O | 11 nM | 0.162 nM | 68
